Experimental data from ChEMBL document CHEMBL4609983, “Pan-specific and partially selective dye-labeled peptidic inhibitors of the polycomb paralog proteins” (Bioorg Med Chem, 2020).
Calls of active or inactive are those of the source. No cut-off for these calls is given here. Non-standard residues stand in square brackets, D forms with d. Residues, ends and D or L forms follow the SMILES beside them. *: point of attachment. Biotin = O=C1N[C@H]2[C@H](CS[C@H]2CCCCC(=O)*)N1; Lys(Me3) = C[N+](C)(C)CCCC[C@H](N)C(=O)O; Benzoyl(4-Br) = O=C(c1ccc(Br)cc1)*

Legend:
[1] = target: T1, Testis-specific chromodomain protein Y 1 (Homo sapiens) (UniProt Q9Y6F8); assay: Binding affinity to recombinant human CDY1 by microarray based assay
T1 sequence (whole entry): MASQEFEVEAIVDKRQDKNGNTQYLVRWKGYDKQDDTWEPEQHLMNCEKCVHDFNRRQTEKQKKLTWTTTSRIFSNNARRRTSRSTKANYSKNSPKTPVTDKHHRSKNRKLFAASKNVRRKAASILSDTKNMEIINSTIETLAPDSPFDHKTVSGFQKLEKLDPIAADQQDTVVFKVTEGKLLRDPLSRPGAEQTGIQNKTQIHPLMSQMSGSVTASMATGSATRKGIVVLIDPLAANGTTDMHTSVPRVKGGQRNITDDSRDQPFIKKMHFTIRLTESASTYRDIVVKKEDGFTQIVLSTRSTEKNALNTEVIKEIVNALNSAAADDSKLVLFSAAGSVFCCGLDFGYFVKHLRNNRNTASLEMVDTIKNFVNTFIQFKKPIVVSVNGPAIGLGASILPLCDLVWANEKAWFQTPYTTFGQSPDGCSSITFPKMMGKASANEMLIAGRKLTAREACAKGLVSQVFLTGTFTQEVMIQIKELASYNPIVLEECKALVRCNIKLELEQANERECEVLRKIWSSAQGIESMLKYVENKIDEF

[2] = target: T2, Chromodomain Y-like protein 2 (Homo sapiens) (UniProt Q8N8U2); assay: Binding affinity to recombinant human CDYL2 by microarray based assay
T2 sequence (whole entry): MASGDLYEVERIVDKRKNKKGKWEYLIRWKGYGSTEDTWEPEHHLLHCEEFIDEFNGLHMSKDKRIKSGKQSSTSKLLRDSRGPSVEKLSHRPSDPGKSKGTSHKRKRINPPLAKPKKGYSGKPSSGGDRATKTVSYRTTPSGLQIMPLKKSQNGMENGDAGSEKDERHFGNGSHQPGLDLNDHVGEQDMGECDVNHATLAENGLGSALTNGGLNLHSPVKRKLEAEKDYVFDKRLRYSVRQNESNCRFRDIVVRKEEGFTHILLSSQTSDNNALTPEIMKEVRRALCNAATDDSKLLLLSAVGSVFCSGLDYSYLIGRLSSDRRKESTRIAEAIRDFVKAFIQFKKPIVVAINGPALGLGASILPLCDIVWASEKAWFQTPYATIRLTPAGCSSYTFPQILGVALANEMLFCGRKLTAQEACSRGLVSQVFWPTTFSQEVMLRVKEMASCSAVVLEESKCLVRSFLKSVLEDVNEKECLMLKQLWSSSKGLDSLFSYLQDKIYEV

[3] = target: T3, Chromodomain Y-like protein (Homo sapiens) (UniProt Q9Y232); assay: Binding affinity to recombinant human CDYL1B by microarray based assay
T3 sequence (whole entry): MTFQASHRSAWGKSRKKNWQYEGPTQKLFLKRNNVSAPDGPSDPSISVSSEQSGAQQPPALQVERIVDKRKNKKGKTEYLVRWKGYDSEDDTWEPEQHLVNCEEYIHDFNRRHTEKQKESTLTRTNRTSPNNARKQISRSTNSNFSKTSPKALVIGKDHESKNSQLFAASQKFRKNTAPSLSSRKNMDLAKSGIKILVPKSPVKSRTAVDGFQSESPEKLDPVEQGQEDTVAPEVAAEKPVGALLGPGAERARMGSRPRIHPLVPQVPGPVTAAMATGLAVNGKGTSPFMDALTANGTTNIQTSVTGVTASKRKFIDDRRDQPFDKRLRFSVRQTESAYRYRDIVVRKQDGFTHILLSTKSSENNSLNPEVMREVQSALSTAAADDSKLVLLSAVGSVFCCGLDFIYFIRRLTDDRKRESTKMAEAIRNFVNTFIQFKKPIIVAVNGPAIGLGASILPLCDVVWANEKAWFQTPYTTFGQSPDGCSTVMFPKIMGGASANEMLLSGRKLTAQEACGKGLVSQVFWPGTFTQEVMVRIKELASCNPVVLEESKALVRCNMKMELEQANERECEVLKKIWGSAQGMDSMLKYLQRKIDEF

[4] = target: Mortality factor 4-like protein 1 (Homo sapiens) (UniProt Q9UBU8); assay: Binding affinity to recombinant human MORF4L1 by microarray based assay
[5] = target: T4, E3 SUMO-protein ligase CBX4 (Homo sapiens) (UniProt O00257); assay: Binding affinity to recombinant human CBX4 by microarray based assay
T4 sequence (whole entry): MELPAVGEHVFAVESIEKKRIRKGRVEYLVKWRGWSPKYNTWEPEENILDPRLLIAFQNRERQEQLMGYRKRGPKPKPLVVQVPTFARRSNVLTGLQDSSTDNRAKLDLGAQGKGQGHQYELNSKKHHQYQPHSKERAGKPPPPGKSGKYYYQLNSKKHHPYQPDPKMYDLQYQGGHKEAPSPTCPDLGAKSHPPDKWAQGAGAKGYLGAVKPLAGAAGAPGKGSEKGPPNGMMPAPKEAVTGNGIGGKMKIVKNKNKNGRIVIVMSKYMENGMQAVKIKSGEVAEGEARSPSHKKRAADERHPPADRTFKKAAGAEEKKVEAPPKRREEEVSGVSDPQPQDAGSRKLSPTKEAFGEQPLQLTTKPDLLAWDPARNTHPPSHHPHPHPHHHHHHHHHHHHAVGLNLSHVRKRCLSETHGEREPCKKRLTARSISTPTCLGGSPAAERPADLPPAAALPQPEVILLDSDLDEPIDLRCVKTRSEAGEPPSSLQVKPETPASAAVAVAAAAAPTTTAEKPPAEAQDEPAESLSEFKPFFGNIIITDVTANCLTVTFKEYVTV

[6] = target: T5, Chromobox protein homolog 7 (Homo sapiens) (UniProt O95931); assay: Binding affinity to recombinant human CBX7 by microarray based assay
T5 sequence (whole entry): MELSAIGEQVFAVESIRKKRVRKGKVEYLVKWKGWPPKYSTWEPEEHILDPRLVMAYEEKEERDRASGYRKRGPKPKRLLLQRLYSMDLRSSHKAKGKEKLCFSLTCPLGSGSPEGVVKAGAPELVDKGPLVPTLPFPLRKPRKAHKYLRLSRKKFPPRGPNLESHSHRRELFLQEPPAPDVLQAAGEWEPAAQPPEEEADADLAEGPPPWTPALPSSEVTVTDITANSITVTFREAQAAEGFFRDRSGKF

[7] = target: T6, Chromobox protein homolog 8 (Homo sapiens) (UniProt Q9HC52); assay: Binding affinity to recombinant human CBX8 by microarray based assay
T6 sequence (whole entry): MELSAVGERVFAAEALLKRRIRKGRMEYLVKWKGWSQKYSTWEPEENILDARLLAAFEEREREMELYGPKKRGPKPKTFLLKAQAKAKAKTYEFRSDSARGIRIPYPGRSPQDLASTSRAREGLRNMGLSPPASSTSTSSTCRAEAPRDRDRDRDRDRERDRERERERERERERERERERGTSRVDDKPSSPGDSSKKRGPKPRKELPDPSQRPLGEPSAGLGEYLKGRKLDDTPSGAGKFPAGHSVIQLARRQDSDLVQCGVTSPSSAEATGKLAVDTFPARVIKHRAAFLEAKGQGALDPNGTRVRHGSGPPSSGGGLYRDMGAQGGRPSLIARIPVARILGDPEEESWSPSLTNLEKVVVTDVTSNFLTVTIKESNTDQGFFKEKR

Sequence of Mortality factor 4-like protein 1 (Homo sapiens) (Q9UBU8 whole entry): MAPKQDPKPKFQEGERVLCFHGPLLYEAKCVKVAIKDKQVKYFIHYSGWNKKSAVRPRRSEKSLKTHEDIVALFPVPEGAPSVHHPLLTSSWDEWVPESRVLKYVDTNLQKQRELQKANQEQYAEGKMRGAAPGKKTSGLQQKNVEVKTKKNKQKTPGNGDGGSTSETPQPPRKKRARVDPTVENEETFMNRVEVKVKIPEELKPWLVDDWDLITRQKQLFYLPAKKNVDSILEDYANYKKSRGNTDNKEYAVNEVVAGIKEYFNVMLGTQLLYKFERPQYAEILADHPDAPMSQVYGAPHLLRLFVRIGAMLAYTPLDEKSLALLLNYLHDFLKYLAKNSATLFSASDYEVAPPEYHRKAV

Activity [1]: Active
Activity [2]: Active
Activity [3]: Active
Activity [5]: Active
Activity [6]: Active
Activity [7]: Active
SMILES: CC(C)C[C@H](NC(=O)[C@H](CO)NC(=O)[C@H](CCCC[N+](C)(C)C)NC(=O)[C@H](Cc1ccc(O)cc1)NC(=O)[C@H](C)NC(=O)[C@H](Cc1ccccc1)NC(=O)c1ccc(Br)cc1)C(=O)N[C@@H](CCCCNC(=O)CCCC[C@@H]1SC[C@@H]2NC(=O)N[C@@H]21)C(N)=O ({Benzoyl(4-Br)}-FAY[Lys(Me3)]SLK(Biotin)-NH2)
Activity [4]: Active
